Assay results: patent US12661503B2, “Microcurrent-based skin treatment and pretreatment techniques” (NSE Products, Inc., priority 2022, dated 2026)
Entries after “also recorded” stand apart in the source; their conditions may differ. Like-named read-outs stand apart in the source and are kept apart here.

Tests used:
[1] = Franz cell epidermal and dermal retention of tracking marker; type: in vitro ADME, human or mammalian
Procedure: (§1) FIG. 7A is a schematic diagram of a Franz cell (or cell system) 700 adapted for testing permeability of a skin sample 710.
(§2) The study was conducted in two phases or parts. Round 1a (Round 1: Phase 1a) evaluated the penetration of 1.0% allantoin (an active) in PBS with a galvanic electrical waveform (GEWF), charge-balanced, symmetric electrical waveform (CSW), and a Program Random Pulse Width Modulation electrical waveform ([…]), in a Franz cell model. Details of the testing process includes receptor well collection and processing (Table 2A), and the epidermal and dermal retention protocol to assess penetration of the tracking markers (Table 2B).
(§3) Receptor fluid collection was measured at time t=0 (before and immediately after the topical sample treatment), at the end of waveform cycle 1 (t=12 min), at the end of waveform cycle 3 (t=36 m); and at 1 hour (1 h), 6 h and 24 h intervals post-pretreatment with the electrical waveform and treatment with the selected topical agents.
Receptor fluid collection was performed at time t=0 (before and immediately after topical sample treatment), at the end of waveform cycle one (12 m), at the end of waveform cycle three (36 m), and at 1 h, 6 h and 24 h intervals post pre-treatment with the electrical waveform, and treatment with the topical agent.
(§4) The number of Franz cell replicates (Franz cells) per sample was n=3 for non-electrical pretreated samples, and n=6 for pulsed electrical pretreatment samples. The number of Franz cell replicates may also vary. The current flow (I) is given in microamperes (μA), and the pulse time (PT) in minutes (mi) where zeros indicate no electrical current, and no pulse time. In each case, the next include the sample being drawn off (draw off), and post pulse treatment/dosing with phosphate buffered saline (PBS) containing 1.0% allantoin. Assessment times were at post 0.5, 1.0, 6 and 24 hours (hr), assaying for allantoin.

[2] = Franz cell tracking marker flux after electrical waveform pretreatment; type: in vitro ADME, human or mammalian
Excerpt: as §1
FIG. 11A is a bar chart illustrating transdermal allantoin penetration, following selected current treatments. FIG. 11B is a bar chart illustrating allantoin retention in the epidermis and dermis, following the selected treatments. FIG. 11C is a bar chart illustrating allantoin flux, following the selected treatments. The Flus is in arbitrary units, for example μg/cm^2/hr, or other suitable, appropriate or convenient measure, as known in the art.
as §4

[3] = Franz cell transdermal penetration (receptor fluid) after electrical waveform pretreatment; type: in vitro ADME, human or mammalian; conditions: for transdermal penetration of allantoin, six minute vs three minute pretreatment: CSW at 375, 250 and 125 μA (all current levels)
Excerpt: as §1
An electrical voltage can be applied to or across the sample 720 via an electrode 740 in contact with the skin sample 730, and a conducting lead 750 disposed in a sampling port 760. Suitable materials for electrode 740 and lead 750 include platinum, silver, copper, and other conducting metals, in porous mesh, wafer, plate, or wire form. A heater 770 can be provided to maintain temperature of the Franz cell 710, sample 720 and donor compound 730, during operation of the system 700.
FIG. 7B is a schematic diagram of a Franz cell system 700 adapted for application of a microcurrent treatment to the skin sample 710. In this example, a galvanic unit or waveform generator 780 can be provided to apply a microcurrent waveform to the skin sample 720; e.g., via a negative polarity platinum wire 755 connected to a porous mesh or wafer electrode 740 on the skin surface, with opposite polarity (+) defined by a platinum lead wire or wire electrode 755. Different metals such as copper or silver can also be used, or other suitable conductors. The polarity can also be reversed, or the lead wire 750 can be used to define a ground potential for the Franz cell 710.
Round one testing was performed for three electrical waveforms with allantoin in PBS (phosphate buffered saline) or the NBS agent. The goal was to compare the three electrical waveforms for their capacity to deliver the one or more components in the NBS v1.18 agent. The delivery was tracked via allantoin measurement, used as a skin penetration tracking marker.
as §2
Samples and treatments included 1.0% allantoin in PBS, with no electrical stimulation. The skin sample was also pretreated with a GEWF (Galvanic Electrical waveform) in PBS for thirty-six minutes (36 m), followed by treatment with a PBS topical or agent containing 1.0% allantoin. Pretreatment was also applied with a charge-balanced, symmetric electrical waveform (CSW) in PBS for 36 m, followed by treatment with a PBS agent containing 1.0% allantoin, or treatment with a Program Random Pulse Width Modulation electrical waveform ([…]) in PBS for 36 m followed by application of a PBS agent with 1.0% allantoin.
as §3, with “The microcurrent dosage delivered ranged up to 375 microampere (μA) for a twelve minute cycle, repeated for three cycles. Receptor” for “Receptor”
Round 1b (Round 1: Phase 1b) testing included evaluation of the NBS v1.18 agent with the GEWF (galvanic electrical waveform), CSW (charge-balanced, symmetric electrical waveform) and […] (Program Random Pulse Width Modulation electrical waveform), in a Franz cell model as described herein. Samples and treatments included the NBS v1.18 agent containing 0.1% allantoin, with no electrical stimulation. […]

[4] = Franz cell epidermal and dermal retention of tracking marker; type: in vitro ADME, human or mammalian; remark: listed apart in the source
[5] = system: upper thigh skin of subjects; assay: Tape stripping assessment for allantoin recovery (LC-MS); type: in vivo; conditions: early tape strips one to five; treated vs untreated upper thigh; week twelve
Procedure: Cellulite was further evaluated by measuring circumference of upper thigh during each visit. At the end of study completion at twelve weeks, twenty tape strips were removed from the treated upper thigh area of five subjects chosen […] and five control strips were obtained from an untreated site on the upper thigh.
In addition, the circumference of each subject's upper thigh was measured during each visit as an indicator for improvement in slimming and firmness (see M. H. Gold, K. A. Khatri, K. Hails, R. A. Weiss and N. Fournier, “Reduction in thigh circumference and improvement in appearance of cellulite,” J. of Cosmetic and Laser Therapy 13, February 2011, which is incorporated by reference herein, in the entirety and for all purposes). At the end of study, the twenty tape strips were collected from the treated upper thigh area, and from an untreated upper thigh area from five randomly chosen subjects. Five tape strips from both treated and untreated areas of upper thigh were evaluated for accumulation of allantoin using LC-MS spectroscopy.
FIGS. 20A and 20B are scatter plots illustrating a tape stripping assessment for allantoin recovery in the upper thigh. The results include representative, anonymous, arbitrarily-labeled samples (S2 and S4), as compared to corresponding controls. […]

[6] = Round Three, FIG. 15B, 1.0% allantoin in PBS

SMILES: NC(=O)NC1NC(=O)NC1=O (stereo not shown) [allantoin]
- allantoin retention in epidermis and dermis, GEWF vs CSW and PRPWMEWF ([1]; Round 1a, FIG. 9B, 1.0% allantoin in PBS, 24 h): slightly more retention
- epidermal retention at pretreatment current of about 375 μA [1, 6]: increased epidermal retention
- retention in the dermis at lower microcurrent levels (250 μA, 125 μA) [1, 6]: higher retention in the dermis
- skin retention, six minute vs three minute pretreatment ([1]; Round Three, FIG. 15B, all microcurrent levels): higher skin retention
- increase in penetration of allantoin upon electrical pre-treatment vs non-electrical pretreated sample with PBS (flux chart) ([2]; FIG. 11C, test #3 vs #4): Greater than fivefold increase
- increase in skin allantoin delivery, electrical pre-treatment with conductive gel vs non-stimulated (flux chart) ([2]; FIG. 11C, test #9 and #11 vs #10): 5
- increase in penetration upon electrical pre-treatment vs non-electrical pretreatment sample with PBS (flux chart) ([2]; Round 2b (caffeine), FIG. 13C, test #1 vs #2): greater than fivefold increase
- allantoin flux, six minute vs three minute electrical pretreatment ([2]; Round Four, FIG. 16C, all current levels, 0.5 h to 24 h after pretreatment): higher allantoin flux
- allantoin flux at later time point ([2]; Round Three, FIG. 15C, 1-6 h): substantially no flux; also recorded: little or substantially no flux
- allantoin flux at initial time point ([2]; Round Three, FIG. 15C, all current levels, 30 m to 1 h following pretreatment): increased allantoin flux
- delivery of allantoin after electrical pre-treatment using conductive gel vs non-electrical pretreatment ([3]; FIG. 11A, test #9 and #11 vs #10, conductive gel containing 1.0% allantoin, Ept-36 min): 5
- increase in transdermal penetration of allantoin ([3]; Round 1a, FIG. 9A, 1.0% allantoin in PBS after 36 min pretreatment with galvanic, CSW or PRPWM waveform, up to 375 μA): fivefold increase
- increase in penetration after electrical pre-treatment using PBS vs non-electrical pretreatment, caffeine as tracking marker ([3]; Round 2b, FIG. 13A, test #1 vs #2, Ept-36 min): greater than fivefold increase
- transdermal penetration of allantoin, six minute vs three minute pretreatment ([3]; Round Four, FIG. 16A, NBS agent with 0.1% allantoin left on): increased transdermal penetration
- transdermal penetration of allantoin, six minute vs three minute pretreatment ([3]; Round Three, FIG. 15A, 1.0% allantoin in PBS): increased transdermal penetration
- increase in penetration of allantoin in both epidermis and dermis vs non-electrically stimulated sample with PBS ([4]; FIG. 11B, test #3 vs #4): Greater than fivefold increase
- skin allantoin delivery in epidermis and dermis, electrically treated conductive gel vs non-stimulated ([4]; FIG. 11B, test #9 and #11 vs #10): 5
- increase in penetration in both epidermis and dermis vs non-electrically stimulated sample with PBS ([4]; Round 2b (caffeine), FIG. 13B, test #1 vs #2): greater than fivefold increase
- epidermal and dermal retention of allantoin, six minute vs three minute pretreatment ([4]; Round Four, FIG. 16B, NBS 0.1% allantoin, about 375 μA): increased epidermal and dermal retention
- allantoin retention, three minute and six minute pretreatments ([4]; Round Four, FIG. 16B, about 125 μA): comparable allantoin retention
- allantoin retention in the dermis ([4]; Round Four, FIG. 16B, about 250 μA, six minute pretreatment): stimulate additional allantoin retention in the dermis
- allantoin retention in the epidermis ([4]; Round Four, FIG. 16B, about 250 μA, three minute pretreatment): stimulate allantoin retention in the epidermis
- difference in allantoin retention in the dermis ([4]; test #5 vs #6, NBS agent 0.1% allantoin, dermis): not necessarily a substantial difference
- allantoin recovered by tape stripping vs background (control) allantoin level [5]: increased over the background skin allantoin level

SMILES: Cn1c(=O)c2c(ncn2C)n(C)c1=O [caffeine]
- increase in penetration after electrical pre-treatment using PBS vs non-electrical pretreatment, caffeine as tracking marker [3]: greater than fivefold increase
